Laboratory results reported in patent US11891365B2, “3-alkyl-4-amido-bicyclic [4,5,0] hydroxamic acids as HDAC inhibitors” (Valo Health, Inc., priority 2015, dated 2024).

Biological target: T1, Full length human recombinant HDAC6 protein (Homo sapiens, UniProt Q9UBN7)
T1 sequence (Q9UBN7 1-1215): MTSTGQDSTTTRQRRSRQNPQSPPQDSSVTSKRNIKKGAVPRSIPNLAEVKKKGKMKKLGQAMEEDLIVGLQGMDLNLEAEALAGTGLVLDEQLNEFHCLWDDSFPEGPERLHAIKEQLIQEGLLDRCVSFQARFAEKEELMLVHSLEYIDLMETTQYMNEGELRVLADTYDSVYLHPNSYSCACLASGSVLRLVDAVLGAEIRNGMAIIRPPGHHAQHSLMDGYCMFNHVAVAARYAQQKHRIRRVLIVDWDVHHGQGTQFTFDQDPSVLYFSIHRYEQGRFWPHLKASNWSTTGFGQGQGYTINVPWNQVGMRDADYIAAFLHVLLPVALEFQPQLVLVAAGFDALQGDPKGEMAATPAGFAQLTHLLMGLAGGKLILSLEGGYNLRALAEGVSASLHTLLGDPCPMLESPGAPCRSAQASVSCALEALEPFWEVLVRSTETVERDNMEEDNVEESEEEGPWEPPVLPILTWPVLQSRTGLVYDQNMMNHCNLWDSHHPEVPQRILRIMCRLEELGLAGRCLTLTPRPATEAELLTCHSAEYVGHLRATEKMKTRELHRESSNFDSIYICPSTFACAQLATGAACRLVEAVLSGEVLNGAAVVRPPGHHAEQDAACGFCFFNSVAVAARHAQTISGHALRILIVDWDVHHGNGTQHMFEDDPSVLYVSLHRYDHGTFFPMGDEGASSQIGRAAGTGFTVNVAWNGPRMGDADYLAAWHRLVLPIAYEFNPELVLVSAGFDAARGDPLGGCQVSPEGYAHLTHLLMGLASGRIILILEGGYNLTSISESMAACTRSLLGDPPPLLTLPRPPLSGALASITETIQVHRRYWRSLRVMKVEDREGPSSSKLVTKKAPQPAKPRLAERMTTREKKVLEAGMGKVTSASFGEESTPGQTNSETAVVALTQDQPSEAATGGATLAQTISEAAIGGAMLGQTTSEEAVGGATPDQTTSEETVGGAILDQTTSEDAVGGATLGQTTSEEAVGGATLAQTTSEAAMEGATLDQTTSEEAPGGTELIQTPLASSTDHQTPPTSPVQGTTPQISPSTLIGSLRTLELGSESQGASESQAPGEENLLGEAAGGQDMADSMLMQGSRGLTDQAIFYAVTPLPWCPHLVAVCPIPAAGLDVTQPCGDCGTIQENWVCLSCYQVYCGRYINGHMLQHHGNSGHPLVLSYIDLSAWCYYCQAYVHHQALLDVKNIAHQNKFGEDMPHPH
Assay: In vitro histone deacetylase assay: enzymatic HDAC6 electrophoretic mobility shift assay
Type: biochemical
Conditions: 1 nM enzyme, 2 μM peptide substrate RHKK(Ac)-NH2, 25° C., 12 concentrations; read-out: Inhibitory Concentration (IC50) Values against HDAC6, Activity Range

`CC(C)(C)OC(=O)N1CCC2(CC1)c1ccccc1OC2C(=O)N1CCOc2cc(C(=O)NO)ccc2C1` (stereo not drawn) [tert-butyl 2-(8-(hydroxycarbamoyl)-2,3,4,5-tetrahydrobenzo[f][1,4]oxazepine-4-carbonyl)-2H-spiro[benzofuran-3,4′-piperidine]-1′-carboxylate] and `CC(C)(C)OC(=O)N1CCC2(CC1)OC(C(=O)N1CCOc3cc(C(=O)NO)ccc3C1)c1ccccc12` (stereo not drawn) [tert-butyl 3-(8-(hydroxycarbamoyl)-2,3,4,5-tetrahydrobenzo[f][1,4]oxazepine-4-carbonyl)-3H-spiro[isobenzofuran-1,4′-piperidine]-1′-carboxylate] fall in the same range of IC50: 100 to 500 nM for the first, 100 to 500 nM for the second.

`CC(C)(C)OC(=O)N1CCC2(CCC(C(=O)N3CCOc4cc(C(=O)NO)ccc4C3)C2)CC1` (stereo not drawn) [tert-butyl 2-(8-(hydroxycarbamoyl)-2,3,4,5-tetrahydrobenzo[f][1,4]oxazepine-4-carbonyl)-8-azaspiro[4.5]decane-8-carboxylate] and `CC(C)(C)OC(=O)N1CCC2(CCC(C(=O)N3CCOc4cc(C(=O)NO)ccc4C3)CC2)CC1` [tert-butyl 9-(8-(hydroxycarbamoyl)-2,3,4,5-tetrahydrobenzo[f][1,4]oxazepine-4-carbonyl)-3-azaspiro[5.5]undecane-3-carboxylate] fall in the same range of IC50: 100 to 500 nM for the first, 100 to 500 nM for the second.

`CC(C)(C)OC(=O)N1CCC2(CC1)CC(C(=O)N1CCOc3cc(C(=O)NO)ccc3C1)c1ccccc12` (stereo not drawn) [tert-butyl 3-(8-(hydroxycarbamoyl)-2,3,4,5-tetrahydrobenzo[f][1,4]oxazepine-4-carbonyl)-2,3-dihydrospiro[indene-1,4′-piperidine]-1′-carboxylate] and `CC(C)(C)OC(=O)N1CCC2(CCCC2C(=O)N2CCOc3cc(C(=O)NO)ccc3C2)C1` (stereo not drawn) [tert-butyl 6-(8-(hydroxycarbamoyl)-2,3,4,5-tetrahydrobenzo[f][1,4]oxazepine-4-carbonyl)-2-azaspiro[4.4]nonane-2-carboxylate] fall in the same range of IC50: 100 to 500 nM for the first, 100 to 500 nM for the second.

`CC(C)(C)OC(=O)N1CC2(CC(C(=O)N3CCOc4cc(C(=O)NO)ccc4C3)CO2)C1` (stereo not drawn) [tert-butyl 7-(8-(hydroxycarbamoyl)-2,3,4,5-tetrahydrobenzo[f][1,4]oxazepine-4-carbonyl)-5-oxa-2-azaspiro[3.4]octane-2-carboxylate] and `CC(C)(C)OC(=O)N1CC2(CC(C(=O)N3CCOc4cc(C(=O)NO)ccc4C3)CS2(=O)=O)C1` (stereo not drawn) [tert-butyl 7-(8-(hydroxycarbamoyl)-2,3,4,5-tetrahydrobenzo[f][1,4]oxazepine-4-carbonyl)-5-thia-2-azaspiro[3.4]octane-2-carboxylate 5,5-dioxide] fall in the same range of IC50: 100 to 500 nM for the first, 100 to 500 nM for the second.

Molecule `CC(C)(C)OC(=O)N1CCC2(CCC(C(=O)N3CCOc4cc(C(=O)NO)ccc4C3)CC2)C1` (stereo not drawn) [tert-butyl 8-(8-(hydroxycarbamoyl)-2,3,4,5-tetrahydrobenzo[f][1,4]oxazepine-4-carbonyl)-2-azaspiro[4.5]decane-2-carboxylate] has an IC50 of no more than 100 nM.
